In ChEMBL document CHEMBL4177748, “Synthesis, structure-activity relationships, and mechanistic studies of 5-arylazo-tropolone derivatives as novel xanthine oxidase (XO) inhibitors” (Bioorg Med Chem, 2018) one finds IC50 data, which are given here for 15 compounds.

The structures appear in SMILES notation.

For orientation: IC50 means the midpoint of a concentration-inhibition curve.

Chain of Xanthine dehydrogenase/oxidase (P80457 whole entry): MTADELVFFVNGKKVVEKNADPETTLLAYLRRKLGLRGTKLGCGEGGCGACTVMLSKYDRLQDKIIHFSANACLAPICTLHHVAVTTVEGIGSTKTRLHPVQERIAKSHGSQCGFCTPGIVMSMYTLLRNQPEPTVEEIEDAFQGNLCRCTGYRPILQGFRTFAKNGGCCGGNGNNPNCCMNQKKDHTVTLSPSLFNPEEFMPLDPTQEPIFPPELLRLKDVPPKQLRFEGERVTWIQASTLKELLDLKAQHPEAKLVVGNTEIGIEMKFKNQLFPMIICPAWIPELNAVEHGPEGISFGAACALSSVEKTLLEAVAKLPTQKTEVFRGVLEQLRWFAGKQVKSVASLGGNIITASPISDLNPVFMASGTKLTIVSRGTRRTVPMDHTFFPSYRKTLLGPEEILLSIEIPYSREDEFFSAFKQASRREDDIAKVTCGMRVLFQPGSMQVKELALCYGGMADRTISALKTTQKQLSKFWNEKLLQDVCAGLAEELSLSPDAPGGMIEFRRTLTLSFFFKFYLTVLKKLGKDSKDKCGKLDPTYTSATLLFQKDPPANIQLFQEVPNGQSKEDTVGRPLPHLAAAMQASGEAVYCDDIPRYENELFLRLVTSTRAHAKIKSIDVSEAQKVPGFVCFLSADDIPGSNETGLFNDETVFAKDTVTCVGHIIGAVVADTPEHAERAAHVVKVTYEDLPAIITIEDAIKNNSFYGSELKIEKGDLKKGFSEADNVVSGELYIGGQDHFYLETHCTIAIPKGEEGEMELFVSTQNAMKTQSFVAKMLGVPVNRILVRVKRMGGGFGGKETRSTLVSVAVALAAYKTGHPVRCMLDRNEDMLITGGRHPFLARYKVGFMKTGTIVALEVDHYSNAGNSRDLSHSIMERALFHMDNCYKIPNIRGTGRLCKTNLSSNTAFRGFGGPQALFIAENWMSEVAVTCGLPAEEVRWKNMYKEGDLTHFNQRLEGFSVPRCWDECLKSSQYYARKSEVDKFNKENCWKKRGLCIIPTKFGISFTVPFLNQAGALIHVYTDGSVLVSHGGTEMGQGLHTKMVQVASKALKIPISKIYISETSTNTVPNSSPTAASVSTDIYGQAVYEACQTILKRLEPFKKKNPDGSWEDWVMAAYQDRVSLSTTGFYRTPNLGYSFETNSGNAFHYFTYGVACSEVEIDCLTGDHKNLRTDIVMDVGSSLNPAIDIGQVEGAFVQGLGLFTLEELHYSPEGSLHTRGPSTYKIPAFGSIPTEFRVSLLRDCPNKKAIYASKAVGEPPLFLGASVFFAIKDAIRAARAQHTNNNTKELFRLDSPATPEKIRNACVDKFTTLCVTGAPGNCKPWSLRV

The first assay addresses Xanthine dehydrogenase/oxidase (Bos taurus, UniProt P80457). Kind of assay: Inhibition of bovine milk xanthine oxidase using xanthine as substrate pretreated for 15 mins followed by substrate addition measured after 8 mins.
Conditions: not given; call rule not given here
For the compound `Cc1cccc(/N=N/c2ccc(O)c(=O)cc2)c1`, the IC50 entry is on record as “Not Active”. Still for that read-out and setting: next, `O=c1ccc(/N=N/c2cccc(Br)c2)ccc1O`: “Not Active”; `O=c1ccc(/N=N/c2ccc(F)cc2)ccc1O`: “Not Active”; `Cc1ccc(Br)cc1/N=N/c1ccc(O)c(=O)cc1`: “Not Active”.

Consider `COc1ccc(/N=N/c2cc(C(F)(F)F)cc(C(F)(F)F)c2)ccc1=O`, for which the IC50 entry is listed as “Not Active”.

For the compound `Cc1cc(C)cc(/N=N/c2ccc(O)c(=O)cc2)c1`, the IC50 entry is recorded as “Not Active”. Same read-out and setting: next, `O=c1ccc(/N=N/c2cccc(I)c2)ccc1O`: “Not Active”; `CCOC(=O)c1ccc(/N=N/c2ccc(O)c(=O)cc2)cc1`: “Not Active”.

Staying with this assay, now noted: read-out: IC50.
For the compound `O=c1ccc(/N=N/c2cccc(F)c2)ccc1O`, the IC50 turned out to be 8.9 µM. Consider `COC(=O)c1cccc(/N=N/c2ccc(O)c(=O)cc2)c1`, for which the IC50 came to 80 µM. Same read-out and setting: in the case of `O=c1ccc(/N=N/c2cccc(Cl)c2)ccc1O` it was 17 µM; in that of `COc1cc(/N=N/c2ccc(O)c(=O)cc2)cc(OC)c1OC`, 57 µM; in that of `O=c1ccc(/N=N/c2cccc(C(F)(F)F)c2)ccc1O`, 7.4 µM.

Regarding `COc1cccc(/N=N/c2ccc(O)c(=O)cc2)c1`, the IC50 came out at 45 µM. On the same count and under the same terms, in the case of `Cc1c(/N=N/c2ccc(O)c(=O)cc2)cccc1[N+](=O)[O-]` it was 23 µM.
